This assay concerns the target thymidine phosphorylase (Escherichia coli, UniProt P07650). The assay is classed as biochemical. The note with it: thymidine phosphorylase inhibition versus standard drug (7-deazaxanthine).
Chain of thymidine phosphorylase (P07650 whole entry): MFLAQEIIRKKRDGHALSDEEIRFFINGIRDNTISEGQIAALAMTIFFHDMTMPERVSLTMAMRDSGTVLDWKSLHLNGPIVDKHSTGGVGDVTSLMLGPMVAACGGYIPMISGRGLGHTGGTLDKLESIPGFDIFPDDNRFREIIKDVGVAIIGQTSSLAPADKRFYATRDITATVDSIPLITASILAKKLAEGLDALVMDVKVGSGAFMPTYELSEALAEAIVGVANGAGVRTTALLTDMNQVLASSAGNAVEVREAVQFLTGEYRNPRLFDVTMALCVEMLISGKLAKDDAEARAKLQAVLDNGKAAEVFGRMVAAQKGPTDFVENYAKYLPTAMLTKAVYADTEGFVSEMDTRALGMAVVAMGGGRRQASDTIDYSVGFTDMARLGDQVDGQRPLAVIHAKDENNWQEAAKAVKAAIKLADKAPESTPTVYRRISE
As for `Cc1ccc(-c2ccc(/C=N/c3nnc(-c4cccc(-c5nnc(/N=C/c6ccc(-c7ccc(C)cc7)cc6)s5)n4)s3)cc2)cc1` [4n, (1E,1'E)-N,N'-(pyridine-2,6-diylbis(1,3,4-thiadiazole-5,2-diyl))bis(1-(4'-methyl-[1,1'-biphenyl]-4-yl)methanimine)], the “potency compared with standard drug” value is given as “less potent than the standard drug”.
For `C(=N\c1nnc(-c2cccc(-c3nnc(/N=C/c4ccc(-c5ccccc5)cc4)s3)n2)s1)/c1ccc(-c2ccccc2)cc1` [4e, (1E,1'E)-N,N'-(pyridine-2,6-diylbis(1,3,4-thiadiazole-5,2-diyl))bis(1-([1,1'-biphenyl]-4-yl)methanimine)] the value was “less potent than the standard drug”.
For `CN(C)c1ccc(/C=N/c2nnc(-c3cccc(-c4nnc(/N=C/c5ccc(N(C)C)cc5)s4)n3)s2)cc1` [4i, 4,4'-((1E,1'E)-((pyridine-2,6-diylbis(1,3,4-thiadiazole-5,2-diyl))bis(azanylylidene))bis(methanylylidene))bis(N,N-dimethylaniline)] the value was “less potent than the standard drug”.

The record behind these values is publication PMC10641276 (Saudi Pharmaceutical Journal : SPJ, 2023).
